Molecular target: T1, human muscle fatty acid binding protein M-FABP (Homo sapiens, UniProt P05413)
T1 construct: a plasmid containing the gene coding for a 143 amino acid protein construct of M-FABP; His-tag (C); made in house; host or cells: prototrophic Escherichia coli
Test: Site-selective NMR screening, 1H-15N fHSQC of 13C'-Val, 15N-Ala labeled M-FABP
Conditions: 1:1 mixture with M-FABP, 200 μM protein
Protocol: The spectra were recorded at 20° C. on a 600 MHz Varian Unity INOVA NMR spectrometer using standard techniques. The sample was prepared in 20 mM sodium phosphate buffer (10% D2O/90% H2O) pH 7.4 containing 50 mM NaCl, 10 mM DTT and 0.02% NaN3. […] (a) 2D ^1H-^15N fast-HSQC (Mori et al., 1995), (b) 2D HNCO and (c) 1D HNCO. […] Experimental times were 1 hour, 4 hours, and 20 minutes respectively.
Experimental conditions were identical to those described in FIG. 8 except the samples used for spectra b-d contained additionally 1% d-DMSO. (a-d) Reference spectrum of free M-FABP. (b) 1:1 mixture of M-FABP and compound cocktail. (c) 1:1 mixture M-FABP and compound cocktail omitting oleic acid. (d) 1:1 mixture of M-FABP and oleic acid.

T1 sequence (P05413 whole entry): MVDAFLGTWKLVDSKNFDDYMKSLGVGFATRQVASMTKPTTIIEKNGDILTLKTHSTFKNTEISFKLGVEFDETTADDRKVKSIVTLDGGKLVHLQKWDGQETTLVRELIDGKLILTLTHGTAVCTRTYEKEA

CCCCCCCC/C=C\CCCCCCCC(=O)O [oleic acid]
chemical shift change of alanine 33 HSQC cross peak: chemical shift change is observed

From US20020119496A1, “Nuclear magnetic resonance screening method” (priority 2000, published 2002)
